Laboratory results published in patent US6653321B1, “Naphthylsulfonic acids and related compounds as glucose uptake agonists” (Telik, Inc., priority 1999, dated 2003).
pEC50: −log10 of the molar value.

Assays:
[1] = target: T1, β-kinase domain of the human insulin receptor (CKD) (Homo sapiens, UniProt P06213); experiment: 32P-Cytoplasmic Kinase Domain (CKD) autophosphorylation assay; assay type: biochemical; settings: 32P incorporated into CKD band, percentage of the vehicle (DMSO) level; 10 minutes at room temperature; compound concentration not given
T1 construct: The complete β-kinase domain of the human insulin receptor (CKD); made in house
T1 sequence (P06213 980-1382 limits assumed): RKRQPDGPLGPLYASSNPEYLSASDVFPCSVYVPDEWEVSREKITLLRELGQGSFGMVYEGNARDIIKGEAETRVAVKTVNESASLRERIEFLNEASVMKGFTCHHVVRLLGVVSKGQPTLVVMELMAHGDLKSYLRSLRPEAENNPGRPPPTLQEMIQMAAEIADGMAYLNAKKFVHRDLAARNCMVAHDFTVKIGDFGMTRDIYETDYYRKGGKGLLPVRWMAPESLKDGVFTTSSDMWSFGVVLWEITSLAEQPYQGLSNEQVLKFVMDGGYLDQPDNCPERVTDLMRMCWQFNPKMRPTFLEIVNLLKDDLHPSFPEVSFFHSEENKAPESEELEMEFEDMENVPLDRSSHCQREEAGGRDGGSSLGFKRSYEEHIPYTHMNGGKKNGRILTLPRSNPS
Method: The complete β-kinase domain of the human insulin receptor (CKD) was expressed in, and purified from, baculovirus. CKD (4.0 μg/mL), in a solution of 50 mM Tris.HCl, 2 mM MnCl2, 10 mM MgCl2 (50 μl final volume), was combined with […] ATP, and 5 μCi ^32P-ATP (3000 Ci/mmol.). A test compound, or the vehicle (DMSO), was added to a final DMSO concentration of 1%. The mixture was incubated for 10 minutes at room temperature. The reaction was terminated by the addition of 10 μl of 200 mM EDTA. A 30 μl volume was removed, mixed with 5 μl of 6×Laemmeli sodium dodecyl sulfate (SDS) treatment buffer, and heated to 94° C. for 5 minutes. A 20 μl aliquot was then run on an SDS-PAGE gel. The radioactivity incorporated into the CKD band is quantified by phosphorimaging of the gel, or scintillation counting of the excised bands.
The potency of a compound for increasing phosphorylation is expressed as a percentage of the vehicle level.

3T3 L1 fibroblasts = experiment: Glucose transport activity (14C-2-deoxy-D-glucose uptake); assay type: cell-based; settings: Mus musculus; differentiated 3T3 L1 cells, insulin 5.6 nM; concentration giving increase in glucose transport generally 150% of the vehicle control
Method: 3T3 L1 fibroblasts (ATCC) were grown in Dulbecco's modified Eagle's medium (DMEM) with 10% fetal bovine serum (FBS, medium). The cells were plated at a density of 3×10^4 cells/well in 24-well plates. Two days after confluence was reached, the cells were treated for 3 days with 0.5 mM isobutylmethylxanthine (IBMX), 1 μM dexamethasone, supplemented with 1.7 μM insulin. The cells were then transferred to medium with 1.7 μM insulin for 2 more days. The cells were maintained in medium for an additional 4 days. Finally the cells were serum starved overnight in 0.1% bovine serum albumin (BSA) in DMEM.
The following day, the culture medium was replaced with 150 mM NaCl, 1.7 mM KCl, 0.9 mM CaCl2, 1.47 mM K2HPO4 (pH 7.4) to which was added either the experimental compounds, or their vehicle (DMSO). Insulin or its vehicle (0.01% BSA) was diluted in the assay buffer (containing test compound or vehicle, respectively) to a final concentration of 5.6 nM. After incubation for 30 min at 37° C. 5 μCi/mL ^14C-2-[…]-D-glucose was added, and the incubation was continued for additional 30 min at 37° C. The cells were then washed 3 times with ice-cold PBS/20 mM glucose and […] in 250 μl of lysis buffer (50 mM HEPES pH 7.6, 1% Triton X-100) for 30 min at room temperature. Radioactivity in the lysate was quantified by scintillation counting.
Once ^14C-2-deoxy-D-glucose is transported into the cell it is not released. Glucose transport is, therefore, proportional to the amount of radioactivity in the lysate. The concentration of compound necessary to produce an increase in glucose transport greater than the sum of the standard deviation of the vehicle control plus the largest standard deviation of a test sample (generally 150% of the vehicle control) was recorded as the EC (effective concentration).

Row | SMILES | Activity (% Control) [1] [% Control] | pEC50 (3T3 L1 fibroblasts)
1 | COc1ccc(C(=O)Nc2cc(C(=O)Nc3cccc4cc(S(=O)(=O)O)ccc34)cc(C(=O)Nc3cccc4cc(S(=O)(=O)O)ccc34)c2)cc1 [Compound 9, 5-({3-[(4-methoxyphenyl)carbonylamino]-5-[N-(6-sulfonaphthyl)carbamoyl]phenyl}carbonylamino)naphthalene-2-sulfonic acid] | 125.3 | 5.00
2 | Cc1ccc(OCC(=O)Nc2cc(C(=O)Nc3cccc4cc(S(=O)(=O)O)ccc34)cc(C(=O)Nc3cccc4cc(S(=O)(=O)O)ccc34)c2)cc1 [Compound 40, 5-({3-[2-(4-methylphenoxy)acetylamino]-5-[N-(6-sulfonaphthyl)carbamoyl]phenyl}carbonylamino)naphthalene-2-sulfonic acid] | 130.7 | < 3.60
3 | O=C(Nc1cc(C(=O)Nc2cccc3cc(S(=O)(=O)O)ccc23)cc(C(=O)Nc2cccc3cc(S(=O)(=O)O)ccc23)c1)c1ccccc1 [Compound 22, 5-({3-(phenylcarbonylamino)-5-[N-(6-sulfonaphthyl)carbamoyl]phenyl}carbonylamino)naphthalene-2-sulfonic acid] | 75.9 | 3.70
4 | O=C(Nc1cccc2cc(S(=O)(=O)O)ccc12)c1cc(NC(=O)c2cccc(O)c2C(=O)O)cc(C(=O)Nc2cccc3cc(S(=O)(=O)O)ccc23)c1 [Compound 21, 2-(N-{3,5-bis[N-(6-sulfonaphthyl)carbamoyl]phenyl}carbamoyl)-6-hydroxybenzoic acid] | 104.3 | < 3.60
5 | COc1cccc(C(=O)Nc2cc(C(=O)Nc3cccc4cc(S(=O)(=O)O)ccc34)cc(C(=O)Nc3cccc4cc(S(=O)(=O)O)ccc34)c2)c1 [Compound 13, 5-({3-[(3-methoxyphenyl)carbonylamino]-5-[N-(6-sulfonaphthyl)carbamoyl]phenyl}carbonylamino)naphthalene-2-sulfonic acid] | 83.7 | 3.70
6 | O=C(Nc1cc(C(=O)Nc2cccc3cc(S(=O)(=O)O)ccc23)cc(C(=O)Nc2cccc3cc(S(=O)(=O)O)ccc23)c1)c1cccc(Cl)c1 [Compound 10, 5-({3-[(3-chlorophenyl)carbonylamino]-5-[N-(6-sulfonaphthyl)carbamoyl]phenyl}carbonylamino)naphthalene-2-sulfonic acid] | 123.1 | 4.70
7 | Cc1cccc(C(=O)Nc2cc(C(=O)Nc3cccc4cc(S(=O)(=O)O)ccc34)cc(C(=O)Nc3cccc4cc(S(=O)(=O)O)ccc34)c2)c1 [Compound 7, 5-({3-[(3-methylphenyl)carbonylamino]-5-[N-(6-sulfonaphthyl)carbamoyl]phenyl}carbonylamino)naphthalene-2-sulfonic acid] | 93.3 | < 3.60
8 | O=C(Nc1cccc2cc(S(=O)(=O)O)ccc12)c1cc(NC(=O)c2cnc3ccccc3n2)cc(C(=O)Nc2cccc3cc(S(=O)(=O)O)ccc23)c1 [Compound 39] | 96.9 | 4.00
9 | O=C(Nc1cc(C(=O)Nc2cccc3cc(S(=O)(=O)O)ccc23)cc(C(=O)Nc2cccc3cc(S(=O)(=O)O)ccc23)c1)c1cccc(F)c1 [Compound 11, 5-({3-[(3-fluorophenyl)carbonylamino]-5-[N-(6-sulfonaphthyl)carbamoyl]phenyl}carbonylamino)naphthalene-2-sulfonic acid] | 94 | 4.70
10 | Cc1ccc(C(=O)Nc2cc(C(=O)Nc3cccc4cc(S(=O)(=O)O)ccc34)cc(C(=O)Nc3cccc4cc(S(=O)(=O)O)ccc34)c2)cc1[N+](=O)[O-] [Compound 16, 5-({3-[(3-nitro-4-methylphenyl)carbonylamino]-5-[N-(6-sulfonaphthyl)carbamoyl]phenyl}carbonylamino)naphthalene-2-sulfonic acid] | 99.9 | 4.70
11 | Cc1ccc(C(=O)Nc2cc(C(=O)Nc3cccc4cc(S(=O)(=O)O)ccc34)cc(C(=O)Nc3cccc4cc(S(=O)(=O)O)ccc34)c2)cc1 [Compound 8, 5-({3-[(4-methylphenyl)carbonylamino]-5-[N-(6-sulfonaphthyl)carbamoyl]phenyl}carbonylamino)naphthalene-2-sulfonic acid] | 130.5 | 5.52
12 | O=C(Nc1cc(C(=O)Nc2cccc3cc(S(=O)(=O)O)ccc23)cc(C(=O)Nc2cccc3cc(S(=O)(=O)O)ccc23)c1)c1ccc(Cl)cc1 [Compound 19, 5-({3-[(4-chlorophenyl)carbonylamino]-5-[N-(6-sulfonaphthyl)carbamoyl]phenyl}carbonylamino)naphthalene-2-sulfonic acid] | 99 | 3.82
13 | O=C(Nc1cc(C(=O)Nc2cccc3cc(S(=O)(=O)O)ccc23)cc(C(=O)Nc2cccc3cc(S(=O)(=O)O)ccc23)c1)c1cccc([N+](=O)[O-])c1 [Compound 15, 5-({3-[(3-nitrophenyl)carbonylamino]-5-[N-(6-sulfonaphthyl)carbamoyl]phenyl}carbonylamino)naphthalene-2-sulfonic acid] | 88.2 | 3.62
14 | O=C(Nc1cccc2cc(S(=O)(=O)O)ccc12)c1cc(NC(=O)c2ccccc2C(=O)O)cc(C(=O)Nc2cccc3cc(S(=O)(=O)O)ccc23)c1 [Compound 17, 2-(N-{3,5-bis[N-(6-sulfonaphthyl)carbamoyl]phenyl}carbamoyl)benzoic acid] | 92.7 | < 3.60
15 | CC(=O)Nc1cc(C(=O)Nc2cccc3cc(S(=O)(=O)O)ccc23)cc(C(=O)Nc2cccc3cc(S(=O)(=O)O)ccc23)c1 [Compound 23, 5-({3-(acetylamino)-5-[N-(6-sulfonaphthyl)carbamoyl]phenyl}carbonylamino)naphthalene-2-sulfonic acid] | 86.8 | < 3.60
16 | O=C(Nc1cccc2cc(S(=O)(=O)O)ccc12)c1cc(NC(=O)c2cc(Cl)c(Cl)cc2C(=O)O)cc(C(=O)Nc2cccc3cc(S(=O)(=O)O)ccc23)c1 [Compound 18, 2-(N-{3,5-bis[N-(6-sulfonaphthyl)carbamoyl]phenyl}carbamoyl)-4,5-dichlorobenzoic acid] | 95.3 | < 3.60
